Literature values in patent US20220275055A1, “DRUG TARGET OF IDIOPATHIC PULMONARY FIBROSIS” (National Institute of Biological Sciences, Beijing, priority 2019, published 2022).

Details: idiopathic pulmonary fibrosis (IPF); background statement

Compound	survival time
COC(=O)c1ccc2c(c1)NC(=O)/C2=C(\Nc1ccc(N(C)C(=O)CN2CCN(C)CC2)cc1)c1ccccc1 [nintedanib]	failed to show significantly increased survival time
Cc1ccc(=O)n(-c2ccccc2)c1 [pirfenidone]	failed to show significantly increased survival time
